Reference: ChEMBL document CHEMBL1201862, “PubChem BioAssay data set” (2004)
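Where inhibition never reached the appropriate level, the endpoint shown equals the highest concentration tested. Otherwise, values were interpolated linearly from a five-concentration, 48-hour dose response in 96-well plates. GI50 is the concentration that inhibits growth by half.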 Calls of active or inactive are those of the source. Cut-off read from the data, not from the text of the source: active = GI50 up to about 1.1 µM and inactive = higher.

Tests used:
Experiment in all cases: NCI anticancer screen, dose series, 48 h
786-0 = tested on: 786-0
A498 = tested on: A498
A549 = tested on: A549
ACHN = tested on: ACHN
BT-549 = tested on: BT-549
CAKI-1 = tested on: CAKI-1
CCRF-CEM = tested on: CCRF-CEM
COLO 205 = tested on: COLO 205
DLD-1 = tested on: DLD-1
DMS-114 = tested on: DMS-114
DMS-273 = tested on: DMS-273
DU-145 = tested on: DU-145
EKVX = tested on: EKVX
HCC 2998 = tested on: HCC 2998
HCT-116 = tested on: HCT-116
HCT-15 = tested on: HCT-15
HL-60 = tested on: HL-60
HOP-18 = tested on: HOP-18
HOP-62 = tested on: HOP-62
HOP-92 = tested on: HOP-92
HT-29 = tested on: HT-29
Hs-578T = tested on: Hs-578T
IGROV-1 = tested on: IGROV-1
K562 = tested on: K562
KM-20L2 = tested on: KM-20L2
KM12 = tested on: KM12
LOX IMVI = tested on: LOX IMVI
LXFL 529 = tested on: LXFL 529
M14 = tested on: M14
M19-MEL = tested on: M19-MEL
MCF7 = tested on: MCF7
MDA-MB-231 = tested on: MDA-MB-231
MDA-MB-435 = tested on: MDA-MB-435
MDA-N = tested on: MDA-N
MOLT-4 = tested on: MOLT-4
Malme-3M = tested on: Malme-3M
NCI-H226 = tested on: NCI-H226
NCI-H23 = tested on: NCI-H23
NCI-H460 = tested on: NCI-H460
NCI-H522 = tested on: NCI-H522
NCI/ADR-RES = tested on: NCI/ADR-RES
OVCAR-3 = tested on: OVCAR-3
OVCAR-4 = tested on: OVCAR-4
OVCAR-5 = tested on: OVCAR-5
OVCAR-8 = tested on: OVCAR-8
PC-3 = tested on: PC-3
RPMI-8226 = tested on: RPMI-8226
RXF 393 = tested on: RXF 393
SF-268 = tested on: SF-268
SF-295 = tested on: SF-295
SF-539 = tested on: SF-539
SK-MEL-28 = tested on: SK-MEL-28
SK-MEL-2 = tested on: SK-MEL-2
SK-MEL-5 = tested on: SK-MEL-5
SK-OV-3 = tested on: SK-OV-3
SN12C = tested on: SN12C
SNB-19 = tested on: SNB-19
SNB-75 = tested on: SNB-75
SNB-78 = tested on: SNB-78
SR = tested on: SR
SW-620 = tested on: SW-620
T47D = tested on: T47D
TK-10 = tested on: TK-10
U-251 = tested on: U-251
UACC-257 = tested on: UACC-257
UACC-62 = tested on: UACC-62
UO-31 = tested on: UO-31
XF498 = tested on: XF498
RXF 631 = tested on: RXF 631

Compound: CC(CCC=O)CCOCc1ccccc1 (centres undefined)
- GI50 (786-0): > 100 µM (inactive)
- GI50 (A498): > 100 µM (inactive)
- GI50 (A549): > 87.5 µM (inactive)
- GI50 (ACHN): > 100 µM (inactive)
- GI50 (BT-549): > 100 µM (inactive)
- GI50 (CAKI-1): 36.8 µM (inactive)
- GI50 (CCRF-CEM): > 48.5 µM (inactive)
- GI50 (COLO 205): > 100 µM (inactive)
- GI50 (DLD-1): > 100 µM (inactive)
- GI50 (DMS-114): 61.2 µM (inactive)
- GI50 (DMS-273): > 95.9 µM (inactive)
- GI50 (DU-145): > 100 µM (inactive)
- GI50 (EKVX): > 100 µM (inactive)
- GI50 (HCC 2998): > 100 µM (inactive)
- GI50 (HCT-116): > 95.9 µM (inactive)
- GI50 (HCT-15): > 100 µM
- GI50 (HL-60): 18.9 µM (inactive)
- GI50 (HOP-18): > 100 µM (inactive)
- GI50 (HOP-62): > 100 µM (inactive)
- GI50 (HOP-92): > 100 µM (inactive)
- GI50 (HT-29): > 100 µM (inactive)
- GI50 (Hs-578T): > 100 µM (inactive)
- GI50 (IGROV-1): > 100 µM (inactive)
- GI50 (K562): > 63.5 µM (inactive)
- GI50 (KM-20L2): > 100 µM (inactive)
- GI50 (KM12): > 57.1 µM (inactive)
- GI50 (LOX IMVI): 49.8 µM (inactive)
- GI50 (LXFL 529): > 100 µM (inactive)
- GI50 (M14): > 100 µM (inactive)
- GI50 (M19-MEL): > 73.8 µM (inactive)
- GI50 (MCF7): 2.8 µM (inactive)
- GI50 (MDA-MB-231): 56.6 µM (inactive)
- GI50 (MDA-MB-435): > 100 µM (inactive)
- GI50 (MDA-N): > 100 µM (inactive)
- GI50 (MOLT-4): > 40.7 µM (inactive)
- GI50 (Malme-3M): > 100 µM (inactive)
- GI50 (NCI-H226): > 100 µM (inactive)
- GI50 (NCI-H23): 67.3 µM (inactive)
- GI50 (NCI-H460): > 100 µM (inactive)
- GI50 (NCI-H522): 34.8 µM (inactive)
- GI50 (NCI/ADR-RES): > 100 µM (inactive)
- GI50 (OVCAR-3): > 88.5 µM (inactive)
- GI50 (OVCAR-4): > 77.8 µM (inactive)
- GI50 (OVCAR-5): > 89.7 µM (inactive)
- GI50 (OVCAR-8): 98.4 µM (inactive)
- GI50 (PC-3): > 100 µM (inactive)
- GI50 (RPMI-8226): 53.7 µM (inactive)
- GI50 (RXF 393): > 100 µM (inactive)
- GI50 (SF-268): > 100 µM (inactive)
- GI50 (SF-295): > 100 µM (inactive)
- GI50 (SF-539): > 100 µM (inactive)
- GI50 (SK-MEL-28): > 100 µM (inactive)
- GI50 (SK-MEL-2): > 100 µM (inactive)
- GI50 (SK-MEL-5): 37.4 µM (inactive)
- GI50 (SK-OV-3): > 100 µM (inactive)
- GI50 (SN12C): > 100 µM (inactive)
- GI50 (SNB-19): > 100 µM (inactive)
- GI50 (SNB-75): > 100 µM (inactive)
- GI50 (SNB-78): > 100 µM (inactive)
- GI50 (SR): > 54.5 µM (inactive)
- GI50 (SW-620): > 80.7 µM (inactive)
- GI50 (T47D): > 100 µM (inactive)
- GI50 (TK-10): > 42 µM (inactive)
- GI50 (U-251): > 100 µM (inactive)
- GI50 (UACC-257): 36.5 µM (inactive)
- GI50 (UACC-62): > 100 µM (inactive)
- GI50 (UO-31): > 100 µM (inactive)
- GI50 (XF498): > 100 µM (inactive)

Compound: CCc1ccc(Cc2ccc(CC)c(NC(=O)C(=O)C3NC(=S)NC3=O)c2CC)c(CC)c1NC(=O)C(=O)C1NC(=S)NC1=O (centres undefined)
- GI50 (786-0): > 100 µM (inactive)
- GI50 (A498): > 100 µM (inactive)
- GI50 (A549): > 100 µM (inactive)
- GI50 (ACHN): > 100 µM (inactive)
- GI50 (CAKI-1): > 100 µM (inactive)
- GI50 (CCRF-CEM): > 100 µM (inactive)
- GI50 (COLO 205): > 100 µM (inactive)
- GI50 (DLD-1): > 100 µM (inactive)
- GI50 (DMS-273): > 100 µM (inactive)
- GI50 (EKVX): > 100 µM (inactive)
- GI50 (HCC 2998): > 100 µM (inactive)
- GI50 (HCT-116): > 100 µM (inactive)
- GI50 (HCT-15): > 100 µM
- GI50 (HL-60): > 100 µM (inactive)
- GI50 (HOP-62): > 100 µM (inactive)
- GI50 (HOP-92): 38 µM (inactive)
- GI50 (IGROV-1): > 100 µM (inactive)
- GI50 (K562): > 100 µM (inactive)
- GI50 (KM-20L2): > 100 µM (inactive)
- GI50 (KM12): > 100 µM (inactive)
- GI50 (LOX IMVI): > 100 µM (inactive)
- GI50 (LXFL 529): > 100 µM (inactive)
- GI50 (M14): > 100 µM (inactive)
- GI50 (M19-MEL): > 100 µM (inactive)
- GI50 (MOLT-4): > 100 µM (inactive)
- GI50 (Malme-3M): > 100 µM (inactive)
- GI50 (NCI-H23): > 100 µM (inactive)
- GI50 (NCI-H460): > 100 µM (inactive)
- GI50 (NCI-H522): > 100 µM (inactive)
- GI50 (OVCAR-3): > 100 µM (inactive)
- GI50 (OVCAR-4): > 100 µM (inactive)
- GI50 (OVCAR-5): > 100 µM (inactive)
- GI50 (OVCAR-8): > 100 µM (inactive)
- GI50 (RPMI-8226): > 100 µM (inactive)
- GI50 (RXF 393): > 100 µM (inactive)
- GI50 (RXF 631): > 100 µM (inactive)
- GI50 (SF-268): > 100 µM (inactive)
- GI50 (SF-539): > 100 µM (inactive)
- GI50 (SK-MEL-28): > 100 µM (inactive)
- GI50 (SK-MEL-2): > 100 µM (inactive)
- GI50 (SK-MEL-5): > 100 µM (inactive)
- GI50 (SK-OV-3): > 100 µM (inactive)
- GI50 (SNB-19): > 100 µM (inactive)
- GI50 (SNB-75): 35.2 µM (inactive)
- GI50 (SNB-78): > 100 µM (inactive)
- GI50 (SW-620): > 100 µM (inactive)
- GI50 (TK-10): > 100 µM (inactive)
- GI50 (U-251): > 100 µM (inactive)
- GI50 (UACC-257): > 100 µM (inactive)
- GI50 (UACC-62): > 100 µM (inactive)
- GI50 (UO-31): 51.8 µM (inactive)
